Laboratory results taken from patent US20110280827A1, “METHODS AND COMPOSITIONS FOR TREATING HEMATOLOGICAL MALIGNANCIES” (priority 2009, published 2011).

How the values were obtained:
AML = conditions: in combination with chemotherapy, compared to chemotherapy alone; cited from earlier work
pre-B-ALL cells = conditions: in vitro; cited from earlier work
[1] = in vivo; cited from earlier work
[2] = test system: stroma-cocultured Jurkat cells, primary CLL cells, subset of AML cells harboring Flt3 mutation; conditions: in vitro, stroma coculture; cited from earlier work
[3] = test system: Raji B-cell lymphoma cells; assay: Disseminated Raji lymphoma model in SCID mice (survival, Kaplan-Meier); format: in vivo
Method: Four groups of 4- to 6-week-old SCID mice (8 animals each) were injected intravenously with 2×10^6 Raji B-cell lymphoma cells. The Raji cell line is a well-characterized human B-cell lymphoblastic line (CXCR4^+, CD19^+, CD20^+, CD22^+, CD52^+) derived from a patient with Burkitt's lymphoma (available from the American Tissue and Cell Collection, Manassas, Va.). Starting on day 7 after the injection, three of the four groups were administered subcutaneous AMD3465 daily (Monday-Friday regimen) at 0.1 mg/kg, 0.5 mg/kg or 1.0 mg/kg body weight.

[4] = test system: B104 B-cell lymphoma cells; assay: Disseminated B104 lymphoma model in SCID mice (survival, Kaplan-Meier); format: in vivo
Method: Five groups of 4- to 6-week-old SCID mice (8 animals each) were injected intravenously with 1×10^6 B104 B-cell lymphoma cells. […] Starting on day 7 after the injection, one group was administered CAMPATH® (alemtuzumab) weekly at 10 mg/kg; a second group was administered AMD3465 three times a week (Monday, Wednesday, Friday regimen) at 5.0 mg/kg; a third group was administered CAMPATH® (alemtuzumab) weekly at 10 mg/kg and AMD3465 three times a week (Monday, Wednesday, Friday regimen) at 1.0 mg/kg; and a fourth group was administered CAMPATH® (alemtuzumab) weekly at 10 mg/kg and AMD3465 three times a week (Monday, Wednesday, Friday regimen) at 5.0 mg/kg. […] The treatment was terminated on day 42.
Four groups of 4- to 6-week-old SCID mice (8 animals each) were injected intravenously with 1×10^6 B104 B-cell lymphoma cells. Starting on day 10 after the injection, one group was administered CAMPATH® (alemtuzumab) weekly at 10 mg/kg; a second group was administered AMD3465 daily (Monday-Friday regimen) at 5.0 mg/kg; and a third group was administered CAMPATH® (alemtuzumab) weekly at 10 mg/kg and AMD3465 daily (Monday-Friday regimen) at 5.0 mg/kg body weight.

| Structure (SMILES) | overall survival (AML) | tumor burden (AML) | SDF-1/CXCL12 induced chemotaxis of pre-B-ALL cells into bone marrow stroma layers (pre-B-ALL cells) | cytotoxic and antiproliferative effects of vincristine and dexamethasone (pre-B-ALL cells) | white blood cell count [1] | chemotherapy-induced apoptosis [2] | mean survival ([3]; 5.0 mg/kg AMD3465 alone daily (M-F) from day 7) | dose dependence of the survival effect ([3]; AMD3465 alone 0.1, 0.5, 1.0 mg/kg, reverse dose-response) | mean survival ([3]; AMD3465 alone s.c. daily (M-F) at 0.1, 0.5 or 1.0 mg/kg from day 7, each concentration tested, vs control) | mean survival ([4]; 5.0 mg/kg AMD3465 alone daily (M-F) from day 10) | mean survival ([4]; 5.0 mg/kg AMD3465 alone three times a week (M, W, F) from day 7) |
| --- | --- | --- | --- | --- | --- | --- | --- | --- | --- | --- | --- |
| c1cc(CN2CCCNCCNCCCNCC2)ccc1CN1CCCNCCNCCCNCC1 [AMD3100] | improved overall survival | decreased tumor burden | blocked | enhanced | increasing the white blood cell count | – | – | – | – | – | – |
| c1ccc(CNCc2ccc(CN3CCCNCCNCCCNCC3)cc2)nc1 [AMD3465] | improved overall survival | decreased tumor burden | – | – | – | significantly enhanced | did not have a significant effect | stronger effect observed at the lower concentrations | significantly increased | did not have a significant effect | did not have a significant effect |
